In assay [1] the target is T1, USP5 (Homo sapiens, UniProt P45974).
T1 sequence (P45974 1-858): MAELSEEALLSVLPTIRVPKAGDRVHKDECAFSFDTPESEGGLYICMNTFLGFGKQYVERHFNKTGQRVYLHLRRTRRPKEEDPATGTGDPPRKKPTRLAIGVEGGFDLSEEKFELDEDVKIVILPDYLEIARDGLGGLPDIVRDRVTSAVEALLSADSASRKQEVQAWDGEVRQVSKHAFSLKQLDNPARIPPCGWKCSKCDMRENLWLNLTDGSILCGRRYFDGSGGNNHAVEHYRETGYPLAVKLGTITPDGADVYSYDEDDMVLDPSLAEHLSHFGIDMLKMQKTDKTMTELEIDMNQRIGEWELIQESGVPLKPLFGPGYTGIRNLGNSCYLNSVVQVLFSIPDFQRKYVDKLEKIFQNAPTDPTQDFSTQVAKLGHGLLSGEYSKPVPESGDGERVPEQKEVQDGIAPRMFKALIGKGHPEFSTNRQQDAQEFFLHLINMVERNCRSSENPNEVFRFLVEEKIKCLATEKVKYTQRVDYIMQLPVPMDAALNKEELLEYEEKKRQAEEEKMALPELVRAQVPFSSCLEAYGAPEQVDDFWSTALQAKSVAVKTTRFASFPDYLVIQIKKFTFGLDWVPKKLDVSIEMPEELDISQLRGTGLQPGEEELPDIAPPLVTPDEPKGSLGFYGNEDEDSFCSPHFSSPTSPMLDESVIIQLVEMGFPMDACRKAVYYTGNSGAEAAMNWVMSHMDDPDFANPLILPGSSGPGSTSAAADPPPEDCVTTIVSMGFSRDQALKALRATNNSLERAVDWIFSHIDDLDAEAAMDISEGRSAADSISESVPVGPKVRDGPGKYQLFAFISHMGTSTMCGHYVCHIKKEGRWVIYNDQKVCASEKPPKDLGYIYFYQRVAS
Put plainly: USP5 activity assay, Ub-AMC substrate. The conditions noted are these: UbAMC substrate 300 nM, USP5 300 pM. The assay is classed as biochemical. On the procedure: USP5 was diluted in USP buffer (50 mM Tris HCl; 0.5 mM EDTA; 5 mM DTT; 0.01% Triton X-100; Bovine Serum Albumin 0.05 mg·ml^−1 pH 7.6). Compounds stocks (100 mM) were stored at −20° C. in DMSO.
Reactions were performed as duplicates in Black 384 well plates (small volume microplates; Greiner; 10 μl final reaction volume). The substrate concentration for USP5 was 300 nM Ub-AMC (Boston Biochem). The concentrations of the enzyme (USP5) in specificity assays was 300 pM. The concentrations were determined in order to perform specificity assays under initial velocities at fixed substrate concentration. Compounds were pre-incubated with enzymes for 30 minutes at 25° C. Reactions were initiated by addition of substrate to the plates containing the enzymes (+/− compounds) diluted in assay buffer. Reactions were incubated for 60 minutes at 37° C. Reactions were stopped by adding acetic acid (100 mM final). Readings were performed on a Pherastar Fluorescent Reader (BMG). λ Emission 380 nm; λ Excitation=460 nm.

Assay [2] deals with T2, Caspase 3 (Homo sapiens, UniProt P42574).
T2 sequence (P42574 29-175 limits assumed): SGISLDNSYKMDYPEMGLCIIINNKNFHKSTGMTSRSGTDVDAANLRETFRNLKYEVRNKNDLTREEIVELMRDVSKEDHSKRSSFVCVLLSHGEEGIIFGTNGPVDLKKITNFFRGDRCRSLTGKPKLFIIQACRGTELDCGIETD
T2 sequence (P42574 176-277 limits assumed): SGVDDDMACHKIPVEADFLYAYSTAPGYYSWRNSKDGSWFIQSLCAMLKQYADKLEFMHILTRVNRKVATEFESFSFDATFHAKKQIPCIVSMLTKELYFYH
Nature of the assay: Caspase 3 activity assay, Ac-DEVD-AMC substrate. The conditions noted are these: Ac-DEVD-AMC 250 nM, Caspase 3 1.6 nM. The assay is classed as biochemical. The protocol:
Caspase 3 was diluted in Caspase 3 buffer (100 mM Hepes pH 7.5; 10% sucrose; 0.1% CHAPS). Compounds stocks (100 mM) were stored at −20° C. in DMSO. Compounds were tested at different concentrations: from 200 μM to 91 nM.
Reactions were performed as duplicates in Black 384 well plates (small volume microplates; Greiner; 10 μl final reaction volume). The substrate concentration for caspase 3 specificity assay was 250 nM (Ac-DEVD-AMC; Promega). The concentration of the enzyme (Caspase 3) in specificity assays was 1.6 nM. The concentrations were determined in order to perform specificity assays under initial velocities at fixed substrate concentration. Compounds were pre-incubated with enzymes for 30 minutes at 25° C. Reactions were initiated by addition of substrate to the plates containing the enzymes (+/− compounds) diluted in assay buffer. Reactions were incubated for 60 minutes at 37° C. Reactions were stopped by adding acetic acid (100 mM final). Readings were performed on a Pherastar Fluorescent Reader (BMG). λ Emission 380 nm; λ Excitation=460 nm.

The test system of assay [3] is HCT116 colon cancer cells. Nature of the assay: HCT116 cell viability and proliferation assay (MTS). The assay is classed as cell-based. The conditions noted are these: Homo sapiens, HCT-116, HCT116, 72 hours, read-out: Cell viability (MTS): HCT116 GI50 Day 3. The protocol: HCT116 colon cancer cells were obtained from ATCC (American Type Culture Collection), and maintained in Mc Coy's 5A medium containing 10% FBS, 3 mM glutamine and 1% penicillin/streptomycin. Cells were incubated at 37° C. in a humidified atmosphere containing 5% CO2.
Cell viability was assayed using the MTS technique in 96-well culture plates (CellTiter 96® Aqueous Non-Radioactive Cell Proliferation Assay, Promega) according to the manufacturer's instructions. MTS (3-(4,5-dimethyl-thiazol-2-yl)-5-(3-carboxy-methoxyphenyl)-2-(4-sulfophenyl)-2H-tetra-zolium) is a MTT-derived tetrazolium that is reduced in metabolically active cells into a soluble, cell-permeant formazan. The amount of formazan, detected by its absorbance at 492 nm is proportional to the number of living, metabolically active cells.
10^3 HCT116 cells were seeded per well. 24 hours later, the medium was changed and the cells treated in triplicate with the concentrations of each compound from 100 μM to 50 nM. The compounds were diluted in 100% DMSO, whose final concentration on cells was kept at 0.5%.
Cells were incubated with the compounds for 72 hours, and their viability then assayed by the addition of MTS for 2 hours. Absorbance at 492 nm was measured directly from the 96-well culture plates. GI50 (Growth Inhibition 50) concentrations for each compound were calculated using a sigmoidal variable slope fit (Prism 4.0, Graphpad Softwares). Values represent mean of three independent experiments.

For assay [4], the target named is T3, USP7 (Homo sapiens, UniProt Q93009). Nature of the assay: Direct binding to USP7 by ESI-MS. The conditions noted are these: 50/50/1 H2O/CH3CN/HCOOH, Vc=120 V, Pi=4 mbar.
T3 sequence (Q93009 whole entry): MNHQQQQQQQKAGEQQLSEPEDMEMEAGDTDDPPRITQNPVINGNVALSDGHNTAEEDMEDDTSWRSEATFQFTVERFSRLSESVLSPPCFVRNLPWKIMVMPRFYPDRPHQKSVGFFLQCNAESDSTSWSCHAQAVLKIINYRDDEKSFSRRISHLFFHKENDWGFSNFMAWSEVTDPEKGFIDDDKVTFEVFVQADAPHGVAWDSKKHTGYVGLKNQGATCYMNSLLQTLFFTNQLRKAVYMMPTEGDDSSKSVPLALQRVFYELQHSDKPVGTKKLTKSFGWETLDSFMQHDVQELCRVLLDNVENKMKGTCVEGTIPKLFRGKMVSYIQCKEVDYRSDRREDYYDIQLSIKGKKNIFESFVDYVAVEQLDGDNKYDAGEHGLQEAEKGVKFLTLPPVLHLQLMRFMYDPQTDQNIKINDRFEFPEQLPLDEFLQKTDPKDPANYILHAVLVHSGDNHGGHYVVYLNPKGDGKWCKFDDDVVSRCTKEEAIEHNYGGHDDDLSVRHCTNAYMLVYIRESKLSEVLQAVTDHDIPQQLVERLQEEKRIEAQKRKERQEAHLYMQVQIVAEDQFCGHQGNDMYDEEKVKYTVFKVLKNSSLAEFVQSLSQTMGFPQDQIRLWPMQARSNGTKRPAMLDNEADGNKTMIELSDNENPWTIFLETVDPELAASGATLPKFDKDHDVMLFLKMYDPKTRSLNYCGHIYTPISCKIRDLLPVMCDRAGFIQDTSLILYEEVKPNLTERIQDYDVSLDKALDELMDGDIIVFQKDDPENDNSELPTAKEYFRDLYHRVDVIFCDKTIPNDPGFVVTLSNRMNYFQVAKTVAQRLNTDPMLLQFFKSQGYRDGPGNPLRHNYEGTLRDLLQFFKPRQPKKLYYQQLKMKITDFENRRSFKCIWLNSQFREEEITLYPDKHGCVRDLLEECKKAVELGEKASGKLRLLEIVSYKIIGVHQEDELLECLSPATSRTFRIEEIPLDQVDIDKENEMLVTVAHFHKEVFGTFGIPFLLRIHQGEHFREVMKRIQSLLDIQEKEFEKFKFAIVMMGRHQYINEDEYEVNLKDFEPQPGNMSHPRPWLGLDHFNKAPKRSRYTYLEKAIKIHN
In assay [5] the target is T3, USP7. Put plainly: HAUbVS competition assay in HEK293 cell lysates, USP7. The assay is classed as biochemical. The conditions noted are these: for blocking of HAUbVS labeling of USP7 (anti-USP7 antibody): HEK293 cell lysates, 12.5-200 μM, dose-dependent; for anti-HA immunoblot band at the size corresponding to HA-Ub-VS-USP7: lysed HEK293 cells, different doses, no change of the other bands.

Assay [6] concerns the target USP10 (Homo sapiens, UniProt Q14694). Put plainly: HAUbVS competition assay in HEK293 cell lysates, USP10. The settings on record: 12.5-200 μM. The assay is classed as biochemical.

Data on 13 molecules can be found in patent US9546150B2, “Substituted quinazolin-4-ones for inhibiting ubiquitin specific protease 7” (HYBRIGENICS SA, priority 2011, dated 2017).

Chain of USP10 (Q14694 whole entry): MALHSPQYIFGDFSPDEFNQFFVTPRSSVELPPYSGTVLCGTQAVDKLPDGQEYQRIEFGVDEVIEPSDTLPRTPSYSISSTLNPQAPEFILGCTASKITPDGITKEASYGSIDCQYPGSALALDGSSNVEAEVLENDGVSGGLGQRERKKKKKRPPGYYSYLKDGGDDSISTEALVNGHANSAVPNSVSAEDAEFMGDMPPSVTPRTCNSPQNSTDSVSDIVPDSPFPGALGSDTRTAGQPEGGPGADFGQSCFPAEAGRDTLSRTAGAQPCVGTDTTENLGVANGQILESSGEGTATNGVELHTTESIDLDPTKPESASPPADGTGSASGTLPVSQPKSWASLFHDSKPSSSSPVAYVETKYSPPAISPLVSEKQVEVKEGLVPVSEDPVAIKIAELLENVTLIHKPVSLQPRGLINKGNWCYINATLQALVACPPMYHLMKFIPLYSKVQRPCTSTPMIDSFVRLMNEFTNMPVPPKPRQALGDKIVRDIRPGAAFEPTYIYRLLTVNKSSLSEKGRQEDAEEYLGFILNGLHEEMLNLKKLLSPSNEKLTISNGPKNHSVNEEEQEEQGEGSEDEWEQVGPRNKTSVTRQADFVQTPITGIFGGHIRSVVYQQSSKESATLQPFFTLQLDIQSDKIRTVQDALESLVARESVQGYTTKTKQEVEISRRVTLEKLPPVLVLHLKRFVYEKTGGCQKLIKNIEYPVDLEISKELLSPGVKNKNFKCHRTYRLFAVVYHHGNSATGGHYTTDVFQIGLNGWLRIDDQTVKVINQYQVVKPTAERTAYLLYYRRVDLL

Take `COc1ccccc1CCC(=O)N1CCC(O)(Cn2cnc3ccccc3c2=O)CC1` [Example 10, 3-({4-hydroxy-1-[3-(2-methoxyphenyl)propanoyl]piperidin-4-yl}methyl)-3,4-dihydroquinazolin-4-one]: the IC50 in assay [1] and in assay [2] was > 200 µM throughout.
In the case of `O=C(CCc1ccccc1)N1CCC(O)(Cn2cnc3ccccc3c2=O)CC1` [Example 1, 3-{[4-hydroxy-1-(3-phenylpropanoyl)piperidin-4-yl]methyl}-3,4-dihydroquinazolin-4-one], the IC50 in assay [1] and in assay [2] was > 200 µM each time. Also, the GI50 in assay [3] was > 500 µM. Besides, the “binding to USP7 under dissociating conditions” value (shortened to “binding to USP7”) in assay [4] is “no binding was observed”.
Consider `CC(Cc1ccccc1)C(=O)N1CCC(O)(Cn2cnc3cc(Cl)ccc3c2=O)CC1` (stereo not drawn) [Example 14, 3-{[1-(2-benzylpropanoyl)-4-hydroxypiperidin-4-yl]methyl}-7-chloro-3,4-dihydroquinazolin-4-one], for which the IC50 in assay [1] and in assay [2] was > 200 µM each time. Further, the GI50 in assay [3] was found to be 28 µM.
Consider `CCC(CC)C(=O)N1CCC(O)(Cn2cnc3cc(Cl)ccc3c2=O)CC1` [Example 9, 7-chloro-3-{[1-(2-ethylbutanoyl)-4-hydroxypiperidin-4-yl]methyl}-3,4-dihydroquinazolin-4-one], for which the IC50 in assay [1] and in assay [2] was > 200 µM each time.
In the case of `O=C(CCc1cccs1)N1CCC(O)(Cn2cnc3ccccc3c2=O)CC1` [Example 12, 3-({4-hydroxy-1-[3-(thiophen-2-yl)propanoyl]piperidin-4-yl}methyl)-3,4-dihydroquinazolin-4-one], the IC50 in assay [1] and in assay [2] was > 200 µM throughout. For the same molecule, in assay [3], the GI50 worked out at 253 µM.
For `CC(Cc1ccccc1)C(=O)N1CCC(O)(Cn2cnc3ccccc3c2=O)CC1` (stereo not drawn) [Example 13, 3-{[1-(2-benzylpropanoyl)-4-hydroxypiperidin-4-yl]methyl}-3,4-dihydroquinazolin-4-one], the IC50 in assay [1] and in assay [2] was > 200 µM each time. For the same molecule, the GI50 in assay [3] is 103 µM.
As to `CC(Cc1cccs1)C(=O)N1CCC(O)(Cn2cnc3ccccc3c2=O)CC1` (stereo not drawn) [Example 5, 3-({4-hydroxy-1-[2-methyl-3-(thiophen-2-yl)propanoyl]piperidin-4-yl}methyl)-3,4-dihydroquinazolin-4-one], the IC50 in assay [1] and in assay [2] was > 200 µM throughout. Further, the GI50 in assay [3] turned out to be 113 µM. In assay [5], the “blocking of HAUbVS labeling of USP7 (anti-USP7 antibody)” value was “efficiently blocked labeling of USP7”. For the same molecule, the “anti-HA immunoblot band at the size corresponding to HA-Ub-VS-USP7” value in assay [5] is on record as “almost completely eliminated”. Besides, the “blocking of HAUbVS labeling of USP10” value in assay [6] is reported as “without any cross-reaction”. For the same molecule, the “binding to USP7” value in assay [4] is on record as “no binding was observed”.
Regarding `COc1cc2ncn(CC3(O)CCN(C(=O)C(C)C)CC3)c(=O)c2cc1OC` [Example 7, 3-{[4-hydroxy-1-(2-methylpropanoyl)piperidin-4-yl]methyl}-6,7-dimethoxy-3,4-dihydroquinazolin-4-one], the IC50 in assay [1] and in assay [2] was > 200 µM each time. In addition, the GI50 in assay [3] is > 500 µM.
For `O=C(CCc1ccccc1)N1CCC(O)(Cn2cnc3cc(Cl)ccc3c2=O)CC1` [Example 2, 7-chloro-3-{[4-hydroxy-1-(3-phenylpropanoyl)piperidin-4-yl]methyl}-3,4-dihydroquinazolin-4-one], the IC50 in assay [2] is > 200 µM. The GI50 in assay [3] amounted to 67 µM. In assay [5], the “blocking of HAUbVS labeling of USP7 (anti-USP7 antibody)” value is on record as “efficiently blocked labeling of USP7” and the “anti-HA immunoblot band at the size corresponding to HA-Ub-VS-USP7” value was “almost completely eliminated”. In addition, the “blocking of HAUbVS labeling of USP10” value in assay [6] is “without any cross-reaction”. In assay [4], the “binding to USP7” value is listed as “no binding was observed”.
As to `O=C(CCC1CCCC1)N1CCC(O)(Cn2cnc3cc(Cl)ccc3c2=O)CC1` [Example 4, 7-chloro-3-{[1-(3-cyclopentylpropanoyl)-4-hydroxypiperidin-4-yl]methyl}-3,4-dihydroquinazolin-4-one], the IC50 in assay [1] and in assay [2] was > 200 µM throughout. The GI50 in assay [3] was determined as 19 µM.
For the molecule `CC(C)C(=O)N1CCC(O)(Cn2cnc3ccccc3c2=O)CC1` [Example 6, 3-{[4-hydroxy-1-(2-methylpropanoyl)piperidin-4-yl]methyl}-3,4-dihydroquinazolin-4-one], the IC50 in assay [1] and in assay [2] was > 200 µM throughout.
With `O=C(CCC1CCCC1)N1CCC(O)(Cn2cnc3ccccc3c2=O)CC1` [Example 3, 3-{[1-(3-cyclopentylpropanoyl)-4-hydroxypiperidin-4-yl]methyl}-3,4-dihydroquinazolin-4-one], the IC50 in assay [1] and in assay [2] was > 200 µM throughout. Moreover, the GI50 in assay [3] is 93 µM. In addition, in assay [4], the “binding to USP7” value is “no binding was observed”.
For `CC(Cc1cccs1)C(=O)N1CCC(O)(Cn2cnc3cc(Cl)ccc3c2=O)CC1` (stereo not drawn) [Example 11, 7-chloro-3-({4-hydroxy-1-[2-methyl-3-(thiophen-2-yl)propanoyl]piperidin-4-yl}methyl)-3,4-dihydroquinazolin-4-one], the IC50 in assay [1] and in assay [2] was > 200 µM each time. For the same molecule, in assay [3], the GI50 came out at 25 µM.
